Results as given in patent US20060167013A1, “Inhibitors for excessive accumulation of sodium ion in cells” (priority 2002, published 2006).

Tested on: ischemic and reperfused hearts
Assay: Ischemia and reperfusion of the isolated rat heart perfused by the Langendorff method: ventricular total sodium content and recovery in contractile tension
Settings: for Sodium Content: 45 min ischemia, 30 min reperfusion, atomic absorption; for Recovery in Contractile Tension: at 30 min after reperfusion, relative to tension at beginning of experiment; for increase of ventricular sodium content induced by ischemia and reperfusion (result in words): added in the reperfusion solution
Description: The heart of the rat was excised and perfused with Krebs buffer solution (in mM: NaCl 119, KCl 4.6, MgSO4.7H2O 1.2, CaCl2·2H2O 1.3, NaHCO3 25, KH2PO4 1.2, glucose 11; pH 7.4, 37° C.) according to the Langendorff method. A thread was attached to the apex of the heart, and then the end was connected to a tension transducer to determine contractile tension. The preparation was stabilized, and then myocardial ischemia was induced by reducing a perfusion pressure (for 45 minutes). After reperfusion for 30 min, the heart was liquefied in nitric acid, and ventricular total sodium content was determined by atomic absorption analysis. Contractile tension was measured during the experiment, and a recovery rate in the contractile tension at 30 min after the reperfusion, relative to the contractile tension at the beginning of the experiment, was used as an index of cardiac contractility.

| SMILES | Sodium Content (10^−3 M) | Recovery in Contractile Tension (10^−3 M) | Sodium Content (10^−4 M) | Recovery in Contractile Tension (10^−4 M) | Sodium Content (10^−5 M) | Recovery in Contractile Tension (10^−5 M) | increase of ventricular sodium content induced by ischemia and reperfusion (result in words) | Sodium Content (10^−6 M in reperfusion solution) | Recovery in Contractile Tension (10^−6 M) | Sodium Content (10^−7 M in reperfusion solution) | Recovery in Contractile Tension (10^−7 M) | Sodium Content (10^−8 M in reperfusion solution) | Recovery in Contractile Tension (10^−8 M) | Sodium Content (10^−9 M in reperfusion solution) | Recovery in Contractile Tension (10^−9 M) |
| --- | --- | --- | --- | --- | --- | --- | --- | --- | --- | --- | --- | --- | --- | --- | --- |
| N=C(N)NC(=O)c1nc(Cl)c(N)nc1N [Amiloride, reference compound] | 64.8 ± 3.7 µmol/g | 59.0 ± 4.7 % | 71.8 ± 3.3 µmol/g | 45.4 ± 3.8% | 77.9 ± 3.9 µmol/g | 33.3 ± 7.2% | no effect |  |  |  |  |  |  |  |  |
| Cc1ccc(N2CCNCC2)c(S(=O)(=O)O)c1.O [MCC-135, 5-methyl-2-(1-piperazinyl)benzenesulfonic acid monohydrate] |  |  |  |  |  |  | suppressed | 59.9 ± 2.3 µmol/g | 79.4 ± 4.7 % | 62.2 ± 0.6 µmol/g | 68.4 ± 3.2 % | 68.7 ± 3.7 µmol/g | 49.1 ± 2.9% | 68.4 ± 6.2 µmol/g | 40.0 ± 4.9% |
